Laboratory results as given in US20190062340A1, “CORTISTATIN ANALOGS” (PRESIDENT AND FELLOWS OF HARVARD COLLEGE, priority 2016, published 2019).

Tests used:
[1] = Tolerability of once-daily dosing in mice (weight loss); details: once-daily at a dose that fully inhibits CDK8 kinase activity in vivo, experiment terminated
[2] = test system: human umbilical vein endothelial cells (HUVECs); details: HUVEC proliferation; initial study of Aoki et al.; read-out: IC50, anti-proliferative activity against HUVECs; cited from earlier work
[3] = test system: off-target enzymes and receptors; assay: Selectivity against off-target enzymes and receptors
[4] = Toxicity (weight loss) over 7 day dosing; type: in vivo; details: low toxicity, no significant weight loss
hERG = hERG (Homo sapiens, UniProt Q12809); assay: hERG activity; details: low hERG activity is defined as IC50>1 μM
Chain of hERG (Q12809 whole entry): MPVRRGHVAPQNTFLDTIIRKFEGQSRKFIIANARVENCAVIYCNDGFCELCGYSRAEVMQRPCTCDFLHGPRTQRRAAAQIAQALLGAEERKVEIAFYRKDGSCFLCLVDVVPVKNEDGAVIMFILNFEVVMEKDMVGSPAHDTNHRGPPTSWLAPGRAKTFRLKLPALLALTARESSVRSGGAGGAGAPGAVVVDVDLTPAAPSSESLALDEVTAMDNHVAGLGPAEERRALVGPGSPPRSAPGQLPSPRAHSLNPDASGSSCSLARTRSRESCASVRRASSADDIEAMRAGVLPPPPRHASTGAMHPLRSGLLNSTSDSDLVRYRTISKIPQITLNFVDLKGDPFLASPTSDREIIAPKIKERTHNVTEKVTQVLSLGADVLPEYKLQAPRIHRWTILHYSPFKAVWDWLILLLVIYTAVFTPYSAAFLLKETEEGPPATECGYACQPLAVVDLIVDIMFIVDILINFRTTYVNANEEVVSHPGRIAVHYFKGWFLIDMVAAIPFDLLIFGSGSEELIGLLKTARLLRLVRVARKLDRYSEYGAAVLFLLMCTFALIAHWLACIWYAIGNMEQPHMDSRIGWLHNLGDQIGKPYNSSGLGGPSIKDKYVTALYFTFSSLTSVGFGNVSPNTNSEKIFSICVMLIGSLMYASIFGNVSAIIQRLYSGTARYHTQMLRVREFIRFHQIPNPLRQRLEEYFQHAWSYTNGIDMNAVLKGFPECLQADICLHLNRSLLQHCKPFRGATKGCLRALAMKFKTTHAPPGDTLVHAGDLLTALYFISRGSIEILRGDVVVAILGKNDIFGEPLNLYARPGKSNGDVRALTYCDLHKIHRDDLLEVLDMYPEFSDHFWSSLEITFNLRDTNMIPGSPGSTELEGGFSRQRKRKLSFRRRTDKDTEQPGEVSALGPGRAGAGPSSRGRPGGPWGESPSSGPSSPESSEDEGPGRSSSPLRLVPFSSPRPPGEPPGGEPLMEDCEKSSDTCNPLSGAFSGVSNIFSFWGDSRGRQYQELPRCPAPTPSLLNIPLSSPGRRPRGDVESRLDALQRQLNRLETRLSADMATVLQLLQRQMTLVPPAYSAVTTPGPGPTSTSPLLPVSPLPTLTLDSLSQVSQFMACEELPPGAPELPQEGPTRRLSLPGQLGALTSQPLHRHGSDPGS

Row | Compound | weight loss in the animal [1] | IC50 [2] [nM] | selectivity against off-target enzymes and receptors [3] | weight loss [4] [%] | IC50 (hERG) [nM]
1 | Cortistatin A | unacceptable weight loss | 1.8 | – | – | –
2 | C[C@]12CC=C3C=C4CC[C@@H](O)C[C@]45CC[C@]3(O5)[C@@H]1CC[C@@H]2c1ccc2ccncc2c1 [Compound A, (3S,3 aR,9R,10aR,12aS,12bR)-3-(isoquinolin-7-yl)-3a-methyl-1,2,3,3 a,4,7,8,9,10,11,12,12b-dodecahydro-10a,12a-epoxybenzo[4,5]cyclohepta[1,2-e]inden-9-ol] | – | – | high selectivity | < 15 | > 1000
